The values below come from PubChem BioAssay (NCI).

“And” between values parts separate entries of the source, which are not always exact repeats. Identical values can stand only once.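 Briefly, cells in 96-well plates were exposed to five compound concentrations for 48 h, and endpoints were estimated by linear interpolation. GI50 marks 50% less growth. TGI marks complete inhibition of growth.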 *1 amine or outer side, *2 acyl side, *3 side chain or, on linkers, in order; H or OH if unused. Where a SMILES comes first, the peptide text is derived from it. Bridges are numbered along the chain shown (N, C = ends). [ ]: non-standard residue; d: D form. The star is where a group is joined. Phe(3-Me) = Cc1cccc(C[C@H](N)C(=O)O)c1; NH(4-Cl-2-F-phenyl) = Fc1cc(Cl)ccc1N*; Pro(4R-Me) = C[C@H]1CN[C@H](C(=O)O)C1; Propanoyl(3-NMe2) = CN(C)CCC(=O)*; Hyp = O=C(O)[C@@H]1C[C@@H](O)CN1; aThr = C[C@H](O)[C@H](N)C(=O)O; Pip = O=C(O)[C@@H]1CCCCN1; CO = O=C([*:1])[*:2]

Test systems include NCI-H460 lung; SF-268 CNS; HL-60(TB) leukemia; NCI-H522 lung; KM12 colon; MDA-MB-231 breast; TK-10 renal; UACC-257 melanoma; HOP-62 NSCLC; OVCAR-3 ovarian.
What all share (experiment): inhibition of tumour cell growth, NCI panel, 48 h

`CN1CCCCC1CCN1c2ccccc2Sc2ccc(S(C)=O)cc21` (stereo not drawn): the TGI in the assay on NCI-H460 lung, in the assay with SF-268 CNS, with HL-60(TB) leukemia, in the assay with NCI-H522 lung, in the assay on KM12 colon and in the assay on MDA-MB-231 breast was greater than 100000 nM throughout. In addition, the TGI with TK-10 renal, in the assay on UACC-257 melanoma, with HOP-62 NSCLC and in the assay with OVCAR-3 ovarian was greater than 100000 nM in each case.
For `O=C1c2cccnc2C(=O)c2c1c(C(=O)OCCN1CCOCC1)c1ccccn21`, the GI50 in the assay on NCI-H460 lung was less than 10 nM; in the assay with SF-268 CNS, less than 13.6 nM; in the assay with HL-60(TB) leukemia, 78.9 nM; in the assay on NCI-H522 lung, less than 10.9 nM; in the assay with KM12 colon it was 72.5 nM; with MDA-MB-231 breast it was 905 nM. Also, the GI50 is 163 nM with TK-10 renal, 35.4 nM with UACC-257 melanoma, less than 10 nM with HOP-62 NSCLC and 67.1 nM in the assay on OVCAR-3 ovarian. For the same molecule, the TGI with NCI-H460 lung is 1060 nM; in the assay on SF-268 CNS, 16200 nM; with HL-60(TB) leukemia it was 3210 nM; in the assay on NCI-H522 lung it was 44.9 nM; in the assay on KM12 colon it was 15700 nM; with MDA-MB-231 breast, 41200 nM. The TGI in the assay on TK-10 renal was 2720 nM; with UACC-257 melanoma it was 592 nM; in the assay with HOP-62 NSCLC, less than 14.2 nM; in the assay on OVCAR-3 ovarian it was 1110 nM.
Take `Cc1cccc(C[C@H](NC(=O)Nc2ccc(Cl)cc2F)C(=O)N[C@@H]2C(=O)N3C[C@H](OC(=O)CCN(C)C)C[C@H]3C(=O)N3CCCC[C@H]3C(=O)N[C@@H](C)C(=O)N3C[C@H](C)C[C@H]3C(=O)O[C@H]2C)c1` ({NH(4-Cl-2-F-phenyl)-CO}-[Phe(3-Me)][aThr][Hyp](Propanoyl(3-NMe2))[Pip]A[Pro(4R-Me)]; ester 2-C): the GI50 was 386 nM with NCI-H460 lung; 466 nM with SF-268 CNS; 354 nM in the assay with HL-60(TB) leukemia; 495 nM in the assay with NCI-H522 lung; 746 nM with KM12 colon; 417 nM in the assay with MDA-MB-231 breast. Moreover, the GI50 in the assay with TK-10 renal is 2160 nM; in the assay on UACC-257 melanoma, 385 nM; in the assay with HOP-62 NSCLC it was 536 nM; with OVCAR-3 ovarian, 362 nM. Moreover, the TGI was 1820 nM in the assay with NCI-H460 lung; 4080 nM with SF-268 CNS; 1900 nM in the assay on HL-60(TB) leukemia; 2470 nM in the assay on NCI-H522 lung; 2340 nM in the assay with KM12 colon; 1660 nM in the assay with MDA-MB-231 breast. Also, the TGI in the assay with TK-10 renal was found to be 10600 nM; with UACC-257 melanoma it was 2140 nM; in the assay with HOP-62 NSCLC, 7240 nM; in the assay on OVCAR-3 ovarian it was 1470 nM.
As for `COc1cc(NC(N)=NCCC(C)(C)c2ccc(C(F)(F)F)cc2)ncc1C#N`, the GI50 in the assay on NCI-H460 lung was 1830 nM; in the assay on SF-268 CNS, 1970 nM; in the assay on HL-60(TB) leukemia it was 278 nM; in the assay on NCI-H522 lung, 1440 nM; in the assay on KM12 colon it was 1800 nM; with MDA-MB-231 breast it was 1800 nM. In addition, the GI50 is 1510 nM in the assay on TK-10 renal, 1770 nM with UACC-257 melanoma, 1780 nM with HOP-62 NSCLC and 1790 nM in the assay on OVCAR-3 ovarian. Also, the TGI in the assay with NCI-H460 lung came to 3550 nM; in the assay with SF-268 CNS it was 4270 nM; in the assay on HL-60(TB) leukemia, 868 nM; with NCI-H522 lung, 2970 nM; in the assay with KM12 colon, 3380 nM; in the assay on MDA-MB-231 breast, 3340 nM. For the same molecule, the TGI with TK-10 renal is 2880 nM; in the assay with UACC-257 melanoma, 3320 nM; in the assay with HOP-62 NSCLC, 3250 nM; with OVCAR-3 ovarian it was 3500 nM.
For `COc1ccc(CNc2nc(NCc3ccc(OC)cc3)c3n[nH]c(C(C)C)c3n2)cc1`, the GI50 was 2980 nM with NCI-H460 lung; 5580 nM in the assay on SF-268 CNS; 2750 nM in the assay on HL-60(TB) leukemia; 2260 nM in the assay on NCI-H522 lung; 4290 nM in the assay with KM12 colon; 4670 nM in the assay with MDA-MB-231 breast. The GI50 is 8290 nM in the assay with TK-10 renal, 16400 nM in the assay on UACC-257 melanoma, 10000 nM with HOP-62 NSCLC and 3040 nM with OVCAR-3 ovarian. For the same molecule, the TGI with NCI-H460 lung was 31800 nM; with SF-268 CNS, 26300 nM; with HL-60(TB) leukemia, 6440 nM; with NCI-H522 lung, 4510 nM; with KM12 colon, greater than 100000 nM; with MDA-MB-231 breast it was 21800 nM. Besides, the TGI in the assay with TK-10 renal was found to be 24400 nM; with UACC-257 melanoma it was 30800 nM; in the assay on HOP-62 NSCLC, 24400 nM; in the assay on OVCAR-3 ovarian, 14500 nM.
Regarding `C=C(CN1CCN(c2cccc(F)c2)CC1)c1ccc(C(=O)Nc2ccccc2N)cc1`, the GI50 in the assay on NCI-H460 lung is 3950 nM; in the assay with SF-268 CNS, 2300 nM; in the assay on HL-60(TB) leukemia it was 357 nM; in the assay with NCI-H522 lung, 848 nM; in the assay with KM12 colon it was 1380 nM; with MDA-MB-231 breast it was 1010 nM. Moreover, the GI50 was 5950 nM in the assay on TK-10 renal, 8190 nM with UACC-257 melanoma, 830 nM in the assay with HOP-62 NSCLC and 1940 nM in the assay on OVCAR-3 ovarian. The TGI in the assay with NCI-H460 lung was greater than 100000 nM; with SF-268 CNS, greater than 100000 nM; in the assay on HL-60(TB) leukemia, 2260 nM; in the assay on NCI-H522 lung, 3880 nM; in the assay with KM12 colon, 50100 nM; in the assay with MDA-MB-231 breast, 4270 nM. Moreover, the TGI in the assay with TK-10 renal was greater than 100000 nM; in the assay on UACC-257 melanoma, 47500 nM; in the assay on HOP-62 NSCLC it was 17500 nM; with OVCAR-3 ovarian, 17700 nM.
Consider `CC(=O)OCC1OC(n2c(-c3ccccc3)c(C)c(C)c(C#N)c2=S)C(OC(C)=O)C(OC(C)=O)C1OC(C)=O` (stereo not drawn), for which the TGI was greater than 100000 nM in the assay with NCI-H460 lung; greater than 100000 nM in the assay on SF-268 CNS; greater than 100000 nM in the assay with HL-60(TB) leukemia; greater than 100000 nM with NCI-H522 lung; greater than 100000 nM in the assay on KM12 colon; > 50000 nM and 30900 nM in the assay on MDA-MB-231 breast. The TGI in the assay with TK-10 renal is greater than 100000 nM; with UACC-257 melanoma it was greater than 100000 nM; in the assay on HOP-62 NSCLC it was 40400 nM and > 100000 nM; in the assay with OVCAR-3 ovarian, greater than 100000 nM. The GI50 in the assay with SF-268 CNS is 18300 nM and 93300 nM; in the assay on TK-10 renal, 48600 nM and > 100000 nM; in the assay with HOP-62 NSCLC it was 14300 nM and > 100000 nM.
Take `CC[C@@]1(O)C(=O)OCc2c1cc1n(c2=O)Cc2c-1nc1ccccc1c2/C=N/OC(C)(C)C`: the GI50 with NCI-H460 lung is less than 10 nM; in the assay with SF-268 CNS, less than 10 nM; in the assay on HL-60(TB) leukemia, less than 10 nM; in the assay on NCI-H522 lung, less than 12.4 nM; with KM12 colon, 44.1 nM; with MDA-MB-231 breast, 552 nM. Further, the GI50 is 78.7 nM in the assay with TK-10 renal, 66.6 nM with UACC-257 melanoma, less than 10 nM in the assay with HOP-62 NSCLC and 80.4 nM in the assay with OVCAR-3 ovarian. The TGI with NCI-H460 lung was 1950 nM; in the assay on SF-268 CNS, 2800 nM; in the assay on HL-60(TB) leukemia, less than 12.5 nM; in the assay on NCI-H522 lung, 81.2 nM; in the assay with KM12 colon, 4840 nM; in the assay with MDA-MB-231 breast, 18100 nM. The TGI with TK-10 renal stood at 3520 nM; in the assay on UACC-257 melanoma, 1320 nM; in the assay on HOP-62 NSCLC, 530 nM; in the assay on OVCAR-3 ovarian it was 1780 nM.
